Patent publication US6875578B2, “System for cell-based screening” (priority 1997, dated 2005)

Legend:
[1] = system: mitochondrial potential within LLCPK cells; assay: JC-1 mitochondrial potential measurement, LLCPK cells; assay type: cell-based, pig; conditions: 10 μM valinomycin, within seconds of treatment
From the text: (§1) We have utilized a positively charged cyanine dye, JC-1 (Molecular Probes, Eugene, Oreg.), which diffuses into the cell and readily partitions into the mitochondrial membrane, for measurement of mitochondrial potential. The photophysics of JC-1 are such that when the probe partitions into the mitochondrial membrane and it experiences an electrical potential >140 mV, the probe aggregates and its spectral response is shifted to the red. At membrane potential values <140 mV, JC-1 is primarily monomeric and its spectral response is shifted toward the blue. Therefore, the ratio of two emission wavelengths (645 nm and 530 nm) of JC-1 partitioned into mitochondria provides a sensitive and continuous measure of mitochondrial membrane potential.
(§2) • 1. […] (2 times, 150 μl/well), the toxins were added if required, and the entire plate was scanned in a plate reader. The JC-1 monomer was measured optimally with a 485 nm excitation/530 nm emission wavelength filter set, and the aggregates were best measured with a 590 nm excitation/645 nm emission wavelength set. […]
(§3) The mitochondrial potential within several types of living cells, and the effects of toxins on the potential were measured using the fluorescence ratio Em 645 (590)/Em 530 (485) (excitation wavelengths in parentheses). For example, we measured the effect of 10 μM valinomycin on the mitochondrial potential within LLCPK cells (pig epithelia). […]

[2] = system: mitochondrial potential in hepatocytes; assay: JC-1 mitochondrial potential measurement, hepatocytes; assay type: cell-based, rat; conditions: various concentrations, nearly complete within seconds to minutes
From the text: as §1, §2, §3

CC(C)[C@@H]1NC(=O)[C@H](C)OC(=O)[C@@H](C(C)C)NC(=O)[C@@H](C(C)C)OC(=O)[C@H](C(C)C)NC(=O)[C@H](C)OC(=O)[C@@H](C(C)C)NC(=O)[C@@H](C(C)C)OC(=O)[C@H](C(C)C)NC(=O)[C@H](C)OC(=O)[C@@H](C(C)C)NC(=O)[C@@H](C(C)C)OC1=O [Valinomycin]
reduction in mitochondrial potential (fluorescence ratio Em 645/Em 530 of JC-1) [1]: approximately 50%
changes in mitochondrial potential [2]: sensitive to valinomycin
